Assay: Viscosity, Haake Rheostress RS 600 rheometer, flat plate geometry
Format: physicochemical
Conditions: for Viscosity: 1.5 mol/kg aqueous Mg-salt solution, 25° C.
Experimental: The viscosity is measured using a Haake Rheometer, type Haake Rheostress RS 600, with a flat plate geometry at a temperature of 25° C. unless otherwise indicated. The viscosity is measured at shear rates (i) of between in the range of between 10 s^−1 and 1000 s^−1, unless otherwise indicated.

| Viscosity | viscosity relative to the jettable range (jettable range typically between 2 and 8 mPas, 1.5 mol/kg solution) | SMILES |
| --- | --- | --- |
| 10.3 mPas | outside the jettable range | CC(=O)CCC(=O)[O-].CC(=O)CCC(=O)[O-].[Mg+2] [compound 14, Mg-levulinate] |
| 5.0 mPas |  | O=C([O-])CCC(=O)[O-].[Mg+2] [compound 10, Mg-succinate] |
| 8.8 mPas |  | O=C([O-])CCCCC(=O)[O-].[Mg+2] [compound 15, Mg-adipate] |
| 3.2 mPas |  | O=S(=O)([O-])[O-].[Mg+2] [compound 1, Mg-sulfate, reference compound] |

| SMILES | Viscosity | viscosity relative to the jettable range (jettable range typically between 2 and 8 mPas, 1.5 mol/kg solution) |
| --- | --- | --- |
| C=C(CC(=O)[O-])C(=O)[O-].[Mg+2] [compound 8, Mg-itaconate] | 5.5 mPas |  |
| O=[N+]([O-])[O-].O=[N+]([O-])[O-].[Mg+2] [compound 2, Mg-nitrate, reference compound] | 4.6 mPas |  |

From patent US20250122397A1, “FOOD SAFE AQUEOUS INKJET COMPOSITIONS” (Canon Production Printing Holding B.V., priority 2023, published 2025)
